The text below walks through data of patent publication US5917057A, “N-hydroxy-dibenz[b,e]oxepinalkylamines, n-hydroxy-dibenz[b,e]oxepinalkanoic acid amides and related heterocyclic analogues” (Hoechst Marion Roussel, Inc., priority 1998, dated 1999).

The target of one assay is T1, 5-lipoxygenase (Rattus norvegicus, UniProt P12527).
T1 construct: cell-free 5-lipoxygenase enzyme obtained from rat basophilic leukemia (RBL-1) cells; endogenous in cells; host or cells: RBL-1 rat basophilic leukemia cells, cell-free supernatant of sonicated cells
T1 sequence (P12527 1-673): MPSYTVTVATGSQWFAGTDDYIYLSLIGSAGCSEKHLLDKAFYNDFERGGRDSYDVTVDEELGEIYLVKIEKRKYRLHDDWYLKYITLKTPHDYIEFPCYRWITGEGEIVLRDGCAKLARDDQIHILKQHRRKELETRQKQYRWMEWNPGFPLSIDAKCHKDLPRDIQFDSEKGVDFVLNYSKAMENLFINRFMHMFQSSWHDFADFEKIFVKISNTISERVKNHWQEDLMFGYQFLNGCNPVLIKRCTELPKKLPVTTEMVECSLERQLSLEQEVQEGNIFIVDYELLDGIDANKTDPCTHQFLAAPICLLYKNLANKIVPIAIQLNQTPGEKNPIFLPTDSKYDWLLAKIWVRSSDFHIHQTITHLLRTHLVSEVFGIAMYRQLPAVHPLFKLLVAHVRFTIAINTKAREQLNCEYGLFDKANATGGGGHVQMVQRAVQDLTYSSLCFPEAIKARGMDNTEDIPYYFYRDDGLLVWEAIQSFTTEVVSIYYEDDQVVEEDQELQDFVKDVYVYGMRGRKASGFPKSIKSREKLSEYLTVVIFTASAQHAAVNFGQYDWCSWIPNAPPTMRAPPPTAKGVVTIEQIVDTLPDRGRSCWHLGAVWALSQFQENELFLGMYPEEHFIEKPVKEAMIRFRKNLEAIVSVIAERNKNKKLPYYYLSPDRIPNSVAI
As to the kind of experiment: In Vitro 5-Lipoxygenase Assay (5-HETE). In kind it is biochemical. To be noted: RBL-1 cell-free supernatant, 10 μM arachidonic acid, 37° C. How it is done:
The ability of a compound to reduce 5-HETE production by cell-free 5-lipoxygenase enzyme obtained from rat basophilic leukemia (RBL-1) cells was measured by a modified procedure of Cochran et al. [Biochem. Biophys. Res. Commun., 161, 1327 (1989)]. RBL-1 cell-free supernatants were prepared by a modification of the method of Jakschik et al., [Prostaglandins, 25, 767 (1983)]. Cells (1×10^9) were collected by centrifugation (22°) and washed at […] with 50 mM phosphate buffer at 5×10^7 cells/ml. Cells were lysed on ice for 45 seconds with a Teckmar sonic disrupter. The homogenate was centrifuged (4° C) for 25 minutes and the supernatant (5 μg protein/μl) was decanted and stored at -80° C. A 1% dimethylsulfoxide (DMSO) vehicle (DMSO in deionized water) was utilized at various concentrations of the test compound. Duplicate reactions were run in 35mM buffer in the presence of 5 μM ATP, 50 μM CaCl2 and 10 μM arachidonic acid at 37° C. The reaction was terminated with 10 μl 0.3 citrate buffer and diluted with BGGE buffer (0.01M phosphate, 0.1% bovine gamma globulin, pH 8.5) containing 114 μM BHT with ice bath cooling. 5-Hydroxyeicosatetraenoic acid (5-HETE) levels were quantitated by radioimmunoassay according to standard procedures.

Assay [1] relates to mouse ear edema induced by topical application of arachidonic acid. As to the kind of experiment: Arachidonic Acid-Induced Mouse Ear Edema (AAEE). The format is in vivo, Female Swiss Webster mice. The settings on record: 1 mg/ear topical, 30 min before arachidonic acid 4 mg/ear; relative to control. How it is done: Arachidonic Acid-Induced Mouse Ear Edema (AAEE)
The purpose of this assay was to determine the ability of a topically applied compound to prevent mouse ear edema induced by topical application of arachidonic acid. Female Swiss Webster mice topically received vehicle or test compound (1.0 mg/ear) on both ears (10 μl on outer and inner ears). After 30 minutes, arachidonic acid is applied to the right ear of each mouse of each group in the amount of 4 mg/ear. Vehicle is applied to the left ear of each mouse of each group at a volume of 20 μl/ear. After an additional hour, the mice are sacrificed and a 4 mm plug is taken from each ear and weighed. The difference between the right and left ear plugs was determined for each animal. The antiinflammatory activity of the test compound is expressed as the mean percent change in the ear plug weight of the treated animals relative to the mean percent change in weights of control animals' ear. (Standard: Indomethacin--90% at 1 mg/ear). Young, J. M. et al., Invest. Dermatol., 80, (1983), pp. 48-52.

Assay [2] relates to cyclooxygenase metabolite (PGE2) formation in cultured 3T3 mouse fibroblasts (CCL92-3T3). As to the kind of experiment: In Vitro Cyclooxygenase Assay (PGE2). In kind it is cell-based. The settings on record: Fibroblast, 24 hours; for IC50: radioimmunoassay. How it is done:
The ability of a compound to reduce cyclooxygenase metabolite formation in cultured 3T3 mouse fibroblasts (CCL92-3T3) was measured by radioimmunoassay of prostaglandin E2 (PGE2) levels in the culture media. The 3T3 cells were maintained in complete Dulbecco's Modified Eagles Medium (DMEM) containing 10% calf serum, 2 mM L-glutamine and 5000 units/ml of penicillin/streptomycin. After seeding in 24 mm tissue culture dishes at […], the cells were cultured for 24 hours. Media was removed by aspiration and replaced with DMEM (1 ml/well, 4 wells/treatment) containing test compound, which was previously dissolved in ethanol, or vehicle at various concentrations. The cells were then incubated for 24 hours and PGE2 levels in the media were quantitated by radioimmunoassay according to established procedure (Lingren et al., FEBS Lett., 48, 22). The mean value from duplicate determinations was utilized to assess the % change from control values for each treatment group.

Assay [3] concerns naja naja (snake venom) phospholipase A2 (PLA2)-induced paw edema. As to the kind of experiment: Phospholipase A2-Induced Paw Edema (PIPE). In kind it is in vivo, male Wistar rats. The settings on record: subplantar; for PIPE 0.1M: 0.1 M test compound injected with PLA2 (3 units/100 μl/paw), rat left hindpaw, two hours; for PIPE ED50: standards, rat hindpaw. Here is the method: Phospholipase A2 -Induced Paw Edema (PIPE)
The ability of compounds to reverse naja naja (snake venom) phospholipase A2 (PLA2)-induced paw edema in male Wistar rats (100-125 gm) was measured. PLA2 (3 units/100 μl dH2 O/paw) alone or with 0.1 M of the test compound was injected in the subplantar region of the rat left hindpaw. Immediately following injection and at two hours post administration, the paw was immersed in a mercury bath, and paw displacement was measured on a recorder via a transducer. The value was then converted to mm Hg. […] Giessler, A. J. et al., "Agents and Actions", Vol. 10, "Trends in Inflammation Research" (1981), p. 195.

The test system of assay [4] is ear edema induced by topical application of TPA (phorbol 12-myristate acetate). As to the kind of experiment: TPA-Induced Ear Edema (TPAEE). The format is in vivo, Female Swiss Webster mice. To be noted: 10 μg/ear topical; TPA 10 μg/ear; about 5 hours; relative to control. Here is the method:
TPA-Induced Ear Edema (TPAEE)
The purpose of this assay was to determine the ability of a topically applied compound to prevent ear edema induced by topical application of TPA (phorbol 12-myristate acetate). Female Swiss Webster mice topically received TPA (10 μg/ear) on the right ear and vehicle on the left ear. The test compound (10 μg/ear) was applied to both ears. After about 5 hours, the animals are sacrificed and a 4 mm diameter plug is taken from each ear and weighed. The difference between the right and left ear plug weights for each animal was determined. The antiinflammatory activity of the test compound is expressed as the mean percent change in ear plug weight of the treated animals compared to the mean percent change in the plug weight of the control animals. (Standard: Indomethacin:--86% at 1 mg/ear). Young, J. M. et al., J. Invest. Dermatol., 80 (1983), pp. 48-52.

Assay [5] concerns phenyl-para-quinone induced writhing. As to the kind of experiment: phenyl-para-benzoquinone writhing assay in mice (analgesia). In kind it is in vivo. The settings on record: at 20 mg/kg. From the text: The compounds of the present invention are also useful as analgesic agents due to their ability to alleviate pain in mammals. […] Exptl. Biol. Med., 95, 729 (1957)].
(In general: In writhing tests, fewer writhes than in controls are read as antinociception.)

As a reminder, the IC50 is the concentration at which inhibition is half-maximal. On to `CN(O)CCc1ccc2c(c1)C(=O)c1ccccc1CO2` [2-(6,11-Dihydro-11-oxodibenz[b,e]oxepin-2-yl)-N-hydroxy-N-methyl-ethylamine], for which the IC50 on 5-lipoxygenase is 240 nM; in assay [2], 100 nM. Moreover, in assay [1], the “AAEE % Change” value is -46%. Also, in assay [3], the “PIPE 0.1M” value is -70. Also, the TPAEE percent change in assay [4] is on record as -50%.
Regarding `CCN(O)CCc1ccc2c(c1)Cc1ccccc1CO2` [2-(6,11-Dihydrodibenz[b,e]oxepin-2-yl)-N-ethyl-N-hydroxyethylamine], at 5-lipoxygenase, the 50% inhibitory concentration (IC50) is 280 nM. In addition, the “AAEE % Change” value in assay [1] is given as -50%. Also, in assay [4], the TPAEE percent change is -84%.
With `O=C1c2ccccc2COc2ccc(CCC(=O)N(O)C3CCCCC3)cc21` [3-(6,11-Dihydro-11-oxodibenz[b,e]oxepin-2-yl)-N-cyclohexyl-N-hydroxypropanamide], the “% Inhibition of Writhing” value in assay [5] was found to be 76%.
As to `CN(O)C(=O)CCc1ccc2c(c1)C(=O)c1ccccc1CO2` [3-(6,11-Dihydro-11-oxodibenz[b,e]oxepin-2-yl)-N-hydroxy-N-methylpropanamide], the IC50 against 5-lipoxygenase amounted to 50 nM; in assay [2], 780 nM. Moreover, the “AAEE % Change” value in assay [1] was -63%. For the same compound, in assay [3], the “PIPE 0.1M” value is -46. The TPAEE percent change in assay [4] was -71%.
For `CN(O)C(=O)CCc1ccc2c(c1)Cc1ccccc1CO2` [3-(6,11-Dihydro-dibenz[b,e]oxepin-2-yl)-N-hydroxy-N-methylpropanamide], the IC50 against 5-lipoxygenase amounted to 80 nM; in assay [2], 1000 nM. Also, the “AAEE % Change” value in assay [1] is on record as -67%.
As to `C[C@]12CCC(=O)C=C1CC[C@@H]1[C@@H]2[C@@H](O)C[C@@]2(C)[C@H]1CC[C@]2(O)C(=O)CO` [Hydrocortisone, reference compound], in assay [3], the “PIPE ED50” value stood at 0.46 M.
Turning to `CC(C)Cc1ccc(C(C)C(=O)O)cc1` (centres unmarked) [Ibuprofen, reference compound], the IC50 in assay [2] turned out to be 22 nM.
On to `O=C1c2ccccc2COc2ccc(CC(=O)N(O)C3CCCCC3)cc21` [N-Cyclohexyl-2-(6,11-dihydro-11-oxodibenz[b,e]oxepin-2-yl)-N-hydroxyacetamide], for which the IC50 on 5-lipoxygenase amounted to 500 nM. Further, in assay [1], the “AAEE % Change” value is reported as -29%. The inhibition at 1 µM in assay [2] (@1 μM, read-out: PGE2 % change) is 17%. In addition, in assay [5], the “% Inhibition of Writhing” value is 68%. Also, the “PIPE 0.1M” value in assay [3] is given as -85. In assay [4], the TPAEE percent change is -52%.
Regarding `CCN(CC)CCCC(C)Nc1c2ccc(Cl)cc2nc2ccc(OC)cc12` (centres unmarked) [Quinacrine, reference compound], the “PIPE ED50” value in assay [3] worked out at 0.1 M.
